The values that follow are results of earlier work, collected in patent publication US20060008806A1, “Method for producing novel DNA sequence with biological activity” (University of Washington, priority 1986, published 2006).

Each structure is given as a SMILES string.

For the series, the system named is β-lactamases. The note with it: Labia, et al., 1979.

As to `CC1(C)S[C@@H]2[C@H](NC(=O)[C@H](N)c3ccccc3)C(=O)N2[C@H]1C(=O)O` [ampicillin], the Km – broadly, the substrate concentration at which the rate is half of its maximum – is 31 µM.
For the molecule `CC1(C)S[C@@H]2[C@H](NC(=O)Cc3ccccc3)C(=O)N2[C@H]1C(=O)O` [benzylpenicillin], the Km is 21 µM.
For `CC1(C)S[C@@H]2[C@H](NC(=O)C(C(=O)O)c3ccccc3)C(=O)N2[C@H]1C(=O)O` (stereo partly drawn) [carbenicillin], the Km is 10 µM.
